Test results published in the METLIN SMRT retention time set (Domingo-Almenara et al. 2019).

Test: gradient 5% acetonitrile 3 min, to 50% in 2 min, to 85% in 15 min, held 3 min, 100 µL/min
Details: column: Zorbax Extend-C18 2.1 x 50 mm; eluents: water / acetonitrile, 0.1% formic acid
Outline: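 The mobile phases were water and acetonitrile, each with 0.1% formic acid, pumped at 100 μL/min through a Zorbax Extend-C18 column (2.1 × 50 mm, 1.8 μm). Pure standards were injected as mixtures of ~100 molecules and detected by a quadrupole time-of-flight mass spectrometer in positive and negative ionization mode. Retention time came from computationally picked adduct peaks, each inspected by hand.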

Structure (SMILES) | RP-LC retention time [s]
COC(=O)C1=C(N)OC2=C(C(=O)CC(C)(C)C2)C1c1cccs1 (stereo not given) | 821
Cc1csc(-c2csc(S(=O)(=O)N(C)Cc3ccccc3)c2)n1 | 1090
CCOCCCNC(=O)Cc1c(C)n(C)c2nc(-c3ccccc3)nn2c1=O | 649
CCN(CC)S(=O)(=O)c1ccc(Cl)c(C(=O)NCc2ccccn2)c1 | 676
CC(C)CCC(=O)NCCc1nc2cccnc2n1-c1ccccc1 | 717
CCc1ccc(OCC(=O)Nc2cnn(CC)c(=O)c2N2CCCCC2)cc1 | 1240
CCn1cc(S(=O)(=O)N2CCO[C@@H](COc3ccccn3)[C@@H]2c2ccccc2)cn1 | 898
COCC(=O)N[C@@H]1CN(C(=O)C2CC=CC2)CC[C@@H]1CO | 578
CC1Oc2ccc(-c3csc(NC(=O)c4cccs4)n3)cc2N(C)C1=O (stereo not given) | 949
CCc1ccc(C(=O)NCCc2nc3cccnc3n2C(C)C)cc1 | 717
COc1ccc2nc(NC3=NCN(Cc4ccco4)CN3)nc(C)c2c1 | 640
COC(=O)c1cc(S(=O)(=O)N2CCCC2C(=O)Nc2cc(F)ccc2F)cn1C (stereo not given) | 911
CSc1cccc(NC(=O)N2CCN(C3=CC4=NCC(C)N4C=N3)CC2)c1 (stereo not given) | 650
CCS(=O)(=O)N1CC(=O)N(c2ccc(C)cc2C)C(C)(C(=O)NC2CCCCCC2)C1 (stereo not given) | 1000
NC(=O)[C@@H]1CCCN1C(=O)[C@H](Cc1ccccc1)NC(=O)[C@@H]1CCCN1C(=O)[C@@H](N)Cc1ccc(O)cc1 | 584
CC(=O)Nc1ccc(S(=O)(=O)NCCc2cn(CC(C)C)c3ncccc23)cc1 | 726
O=C(c1c[nH]c2ncccc12)N1CCCCCC1 | 646
Cc1cc(F)ccc1NC(=O)COc1cc(C(F)(F)F)c2c(C)nn(C)c2n1 | 985
O=C(Nc1cccc(NC(=O)c2cccc(O)c2O)c1)c1cccc(O)c1O | 765
COC(=O)c1cnn(-c2ccc(C(=O)NC3CCCC3)cc2)c1N | 716
CC(C)Cc1cc(-c2nn3c(Cc4ccc(Cl)cc4)nnc3s2)n[nH]1 | 1010
O=C(c1ccc(Cl)s1)N1CCC(N(C(=O)C2CC2)C2CCOCC2)CC1 | 773
CN(CC1(C)CCOCC1)C(=O)COc1ccc(F)cc1 | 770
Cc1cnc(C2CCOCC2)n1CC1CN(C(=O)C2CC=CC2)C1 | 568
COc1ccc2c(c1)C1(CCN(S(=O)(=O)c3cc(OC)ccc3OC)C1)C(=O)N2C (stereo not given) | 879
CCCn1c(=O)c(C)nc2cc(-c3noc(C4CC(=O)N(c5cccc(Cl)c5)C4)n3)ccc21 (stereo not given) | 1050
CCOC(=O)Cn1cc(S(=O)(=O)N2CCCCC2)ccc1=O | 762
CCCCc1ccc(NC(=O)N2CC(c3nc(C)no3)C3(CCOCC3)C2)cc1 (stereo not given) | 914

The next lines start with the values.

RP-LC retention time [s] | Structure (SMILES)
850 | O=C(Cc1ccc(Cl)cc1)Nc1cc(-c2ccccn2)no1
914 | O=C(Cn1nc2c(Sc3cccc(F)c3)nccn2c1=O)N1CCN(c2ccccc2)CC1
996 | N#Cc1ccc(-c2nc(C3CC(=O)N(c4ccc(Cl)cc4)C3)no2)cc1 (stereo not given)
1020 | Cc1ccc(S(=O)(=O)N2CCc3c(c(-c4nnc(-c5ccccc5)o4)nn3C)C2)cc1C
1180 | CC(C)Cc1ccc(S(=O)(=O)N2CCc3c(c(-c4nnc(-c5ccc(F)cc5)o4)nn3C)C2)cc1
626 | CC(=O)Nc1ccc(C(=O)NC2CCN(c3cc(-c4ccccc4)[nH]n3)C2)cc1 (stereo not given)
693 | CCCNC(=O)C1CCCN(c2nnc(C)c3c(C)n(-c4ccc(Cl)cc4)nc23)C1 (stereo not given)
910 | Cc1ccc(S(=O)(=O)N2C(=O)CCC2C(=O)NCc2nc(-c3cccc(C)c3)no2)cc1 (stereo not given)
734 | Cc1nc2cc(N3CC(C(=O)NCc4cccc(Cl)c4)CC3=O)ccc2o1 (stereo not given)
905 | Cn1nc(-c2nnc(-c3ccccc3)o2)c2c1CCN(S(=O)(=O)c1cccc3nsnc13)C2
546 | Cc1cccc(NC(=O)N2CCc3[nH]cnc3C2c2ccncc2)c1C (stereo not given)
836 | O=C(NCCC1=CCCCC1)c1ccc(CN2CCN(C3CCCC3)C(=O)C2=O)cc1
586 | Cc1cnc(C2CCC2)n1CCNC(=O)c1cc(C2CC2)[nH]n1
944 | Cc1ccc(C)c(N2CCN(C(=O)C3CCN(C(=O)C4Sc5ccccc5NC4=O)CC3)CC2)c1 (stereo not given)
716 | O=S(=O)(c1ccccc1F)N1CCC(Nc2cccnc2)C1 (stereo not given)
651 | CCN1CCC(N(Cc2cccs2)C(=O)Nc2cc(OC)cc(OC)c2)CC1
913 | Cc1ccc(C)c(CNC(=O)c2cnc(-c3ccccc3)nc2-c2ccncc2)c1
1080 | COc1ccc(Cl)cc1NC(=O)Cn1nc(N2CCSCC2)c2ccccc2c1=O
1240 | O=C(C1CCCN(c2nccnc2Oc2ccccc2)C1)N1CCN(c2ccccc2Cl)CC1 (stereo not given)

RP-LC retention time [s] | Structure (SMILES)
621 | CCC(C)NC(=O)N1CCN(Cc2nc3cccnc3n2-c2ccc(OC)cc2)CC1 (stereo not given)
943 | CC(=O)Nc1ccc(-c2nc(-c3ccc4c(c3)oc(=O)n4C(C)C)no2)cc1
808 | CSc1ccc(-c2nc3nc(C)cc(C)n3c2Nc2c(C)cccc2C)cc1
649 | NC(=O)C1CCN(S(=O)(=O)Cc2c(F)cccc2Cl)CC1
669 | CCC(C(=O)N1CCN(c2ccccn2)CC1)n1nc(C)c2nn(-c3ccccc3)c(C)c2c1=O (stereo not given)
1170 | COc1ccc(-c2noc(-c3nc(Cc4cccc(F)c4)no3)n2)cc1
1050 | COc1ccc(N2CC(c3nc(-c4ccc(C)cc4)no3)CC2=O)cc1Cl (stereo not given)
652 | O=C(NCCc1nc2cccnc2n1C1CCCC1)NCc1ccco1
833 | CCOc1ccccc1NC(=O)N1CCCC1c1cc(CC)no1 (stereo not given)
796 | CN1C(=O)CO[C@@H](C(=O)N2CCN(c3ccccc3)CC2)[C@@H]1c1ccccc1
1240 | CCN1C(=O)COc2ccc(-c3noc(-c4ccc(Br)cc4)n3)cc21
1010 | Cc1ccc(-c2ncc(C#N)c(=O)n2CC(=O)NCc2ccccc2Br)cc1
934 | Cc1noc(-c2ccc(OC3CN(C(=O)C(C)c4ccccc4)C3)cc2)n1 (stereo not given)
721 | O=C(NCc1ccco1)C1CCCN(c2nc3ccccc3[nH]c2=O)C1 (stereo not given)
712 | COc1ccc(Cc2nnc(C3CCN(C(=O)c4cccc(N(C)C)c4)CC3)s2)cc1
1200 | O=C(Nc1ccc(F)cc1)c1c(O)c2cccnc2n(-c2ccc(F)cc2)c1=O
713 | O=C(NC1CCCc2ccccc21)C1CCN(Cc2noc(-c3ccc(F)cc3)n2)CC1 (stereo not given)
612 | CC1CCCN(CCCNC(=O)C2CCN(S(=O)(=O)c3ccc4c(c3)sc(=O)n4C)CC2)C1 (stereo not given)
